Converted amounts (≈) assume the structure as drawn.
What was measured:
[1] = test system: Murine Lewis lung carcinoma cell line; assay: Spontaneous metastatic cancer in mice (Lewis lung carcinoma); settings: 100 mg/kg/d, intragastric administration
Experimental: The tumors growed to 1000 mm^3 and then were randomly divided into groups for adminstration, the groups were treated after three weeks. A total of 4 groups including ZYS-1 high, medium and low (100, 50, 25 mg/kg/d, intragastric administration) and positive control (gefitinib 100 mg/kg/d, intragastric administration) groups were set. The efficacy of ZYS-1 was evaluated in terms of general survival status (food intake, activity, hair etc.), tumor inhibition rate and metastasis inhibition rate.
The curve of tumor growth was plotted. On the next day after completing the treatment cycle, the animal was weighed. After collecting the blood, the animal was sacrificed. The tumor tissue was stripped, weighed, and the tumor inhibition rate was calculated. Store at −80 ? .
Metastasis rate=Number of mice with metastasis/Total number of mice×100%
Inhibition rate of metastasis loci=(average number of metastasis loci in the control group−average number of metastasis loci in the experimental group)/average number of metastasis loci in the control group×100%

[2] = Solubility comparison of ZYS-1 and PAC-1 needle crystal (HPLC); assay type: physicochemical; settings: organic solvent or mixture, thermodynamic from solid, room temperature
Experimental: The appropriate amounts of ZYS-1 and PAC-1 needle crystal were dissolved into the appropriate amount of methanol, absolute ethanol, 95% ethanol, acetonitrile, ethyl ether, ethyl acetate, propanol, acetone, respectively, and sonicated for 1 hour, then left at room temperature for 24 hours to obtain the oversaturated solution. After centrifugation at 4000 r/min for 5 min, the supernatant was diluted appropriately and filtered through a 0.45 μm needle filter. The concentration was determined by HPLC and the solubility was calculated.

ICR mice = assay: in vivo
Text: (§1) Experimental materials: PAC-1 needle crystal (prepared according to the method of Quinn P. Peterson et al., J. Med. Chem. 2009, 52, 5721-5731), batch number 20090818.
(§2) Experimental animals and feeding conditions: ICR mice, half male and half female. Body weight 20±2 g, provided by Beijing Weitonglihua Experimental Animal Technology Co., Ltd., SPF grade feeding, certificate: SCXK (Beijing) 2006-0009. Particulate feed for mouse breeding was provided by Beijing Ke'ao Xieli Feed Co., Ltd. Animals were housed in barrier-level (Grade 2) animal lab in Beijing Anzhen Hospital, fluorescent lighting, 12 h light and dark cycle, room ? temperature 22˜24 ? , humidity 40-47%, air supply 10-12 times/h, Laboratory license number: SYXK (Beijing) 2005-0028. Mice were housed in clear plastic boxes with 5 per cage separated by gender.
(§3) The method of preparing the test drug: PAC-1 needle crystal was placed in a mortar to be finely ground. A propriate amount of PAC-1 crystal was accurately weighed, which was formulated with 0.5% CMC-Na to reach the desired concentration.
(§4) Animals grouping: After fasting (except for water) for 11 h, according to body weight, animals were randomly divided into groups of 10 with 5 males and 5 females. There were 8 groups in total. […]. One-time intragastric administration was used in the experiment. The negative control group was orally administered an equal volume of 0.5% CMC-Na. The animals started feeding at 3 hours after administration.
(§5) Observed indicators: immediately after administration, the observation of the responses of the animals to drugs (such as: general performance, respiration, activity, with or without convulsions, righting reflex, pain reflex, response to external stimuli and other indicators) was started. When observing and recording the symptom of toxic reaction after animal administration, the time and duration of toxicity, recovery time, and the time of animal death, the animal was immediately dissected grossly, visually observing the main organs (heart, liver, spleen, lung and kidney, stomach) to see if there is congestion, increased volume, hardens, discoloration. For survival animals, they were observed and recorded day by day whether there was delayed death and delayed toxicity reaction in 7 days. The animals were weighed and fed once every 2 days. After finishing observation for 7 days, the survival animals were dissected grossly and the situations of their main organs were observed. […]

in vivo = settings: both sexes, ICR, mouse, in vivo, po
Text: as §1, §2, §3, §4, §5

[3] = Solubility comparison of ZYS-1 and PAC-1 needle crystal (HPLC); assay type: physicochemical; settings: room temperature
[4] = In vivo pharmacokinetic comparison in rats; settings: male Wistar rats, 60 mg/Kg, n = 6
Experimental: Twelve male Wistar rats were randomly divided into ZYS-1 group and PAC-1 group. These rats were fasted for 12 hours before administration, and fed water freely. After ZYS-1 and PAC-1 needle crystal were given at the dose of 60 mg/Kg, 0.5 mL orbital blood was collected at 0, 5, 20, 30, 45, 60, 120, 180, 240, 360, 480, 720 mins, centrifuged at 5000 r/min for 5 min. 200 μL plasma was taken. The plasma was added 3 mL acetone and vortexed for 1 min. After centrifuging at 15000 r/min for 5 min, the supernatant was collected and dried under nitrogen at 37° C., to which 200 μL acetonitrile was added to be reconstituted. After sonication for 10 min, the mixture was vortexed for 1 min, and filtered through 0.45 microporous filter membrane. The filtrate was tested by HPLC, and the plasma concentration at each time point was calculated.

[5] = both, ICR, mouse, in vivo, 7 days
[6] = one-time intragastric administration to mice

COc1cc2ncnc(Nc3ccc(F)c(Cl)c3)c2cc1OCCCN1CCOCC1 [Gefitinib, gefitinib, reference compound]
Body weight of the animals, End [1]: 30.5 ± 5.0 g | Metastasis rate [1]: 100% | Number of lung (metastasis loci) [1]: 6.9 ± 3.7 | Tumor weight [1]: 2.1036 ± 0.3382 g

C=CCc1cccc(/C=N/NC(=O)CN2CCN(Cc3ccccc3)CC2)c1O [PAC-1 needle crystal, 1-Piperazineacetic acid, 4-(phenylmethyl)-2-[[2-hydroxy-3-(2-propen-1-yl)phenyl]methylene], reference compound]
solubility at 24 h ([2]; 95% ethanol): 16.4 mg/mL (≈ 41.9 mM) | solubility at 24 h ([2]; absolute ethanol): 18.9 mg/mL (≈ 48.3 mM) | solubility at 24 h ([2]; acetone): 81.8 mg/mL (≈ 208 mM) | solubility at 24 h ([2]; acetonitrile): 20.7 mg/mL (≈ 52.8 mM) | solubility at 24 h ([2]; diethyl ether): 3.51 mg/mL (≈ 8.94 mM) | solubility at 24 h ([2]; ethyl acetate): 33.4 mg/mL (≈ 85 mM) | solubility at 24 h ([2]; methanol): 28.2 mg/mL (≈ 71.8 mM) | solubility at 24 h ([2]; propanol): 16 mg/mL (≈ 40.9 mM) | 0% mortality dose (ICR mice; [5]): 240.1 mg/kg | 100% mortality dose (ICR mice; [5]): greater than 1000 mg/kg | dose without apparent toxicity (ICR mice; [5]): 117.7 mg/kg | time for most survival animals to return to normal after dosing (ICR mice; [6]): ≤ 3 h | time of death after administration (mainly) (ICR mice; [6]): 30˜60 min | LD50 at 7 days (in vivo; LD50 95% confidence limit): 451 to 675 mg/kg | LD50 at 7 days (in vivo; acute toxicity (LD50) dose): 552 mg/kg | Solubility ([3]; Water): 0.0015 mg/mL (≈ 0.00382 mM) | solubility at 24 h ([3]; chloroform, organic solvent or mixture, thermodynamic from solid): 290 mg/mL (≈ 740 mM) | AUC(0-tn) [4]: 320.2186357 ± 127.0767162 µg·h/mL | AUC(0-∞) [4]: 578.8993071 ± 466.830172 µg·h/mL | Cmax [4]: 2078.7579 ± 950.561 ng/mL | MRT(0-tn) [4]: 254.3166 ± 180.2413 h | MRT(0-∞) [4]: 1501.7189 ± 1808.4213 h | Tmax [4]: 52.5000 ± 12.5499 h | T½ka [4]: 15.4260 ± 11.8916 h | T½α [4]: 134.7563 ± 63.3796 h | V/F [4]: 0.0318 ± 0.0177 L | ka [4]: 0.0720 ± 0.0468 h⁻¹ | ke [4]: 0.0062 ± 0.0029 h⁻¹ | lagtime [4]: 8.8081 ± 4.8496 h
